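96-well plates; 48 h exposure; 5 concentrations. Endpoints by linear interpolation between flanking doses. Not reached: highest tested concentration assigned. Abbreviation: GI50, concentration required for 50% inhibition of growth.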 Active and inactive are the calls of the source. No stated cut-off is given here; in the data, active = GI50 up to about 1.1 µM and inactive = higher.
What was measured:
Assay in all cases: growth of human tumour cells (NCI), 48 h
HL-60 = system: HL-60
UO-31 = system: UO-31
CAKI-1 = system: CAKI-1
HCC 2998 = system: HCC 2998
OVCAR-8 = system: OVCAR-8
TK-10 = system: TK-10
UACC-62 = system: UACC-62
COLO 205 = system: COLO 205
SK-MEL-5 = system: SK-MEL-5
IGROV-1 = system: IGROV-1
SF-268 = system: SF-268
LOX IMVI = system: LOX IMVI
RXF 393 = system: RXF 393
RPMI-8226 = system: RPMI-8226
SNB-75 = system: SNB-75
NCI-H226 = system: NCI-H226
Hs-578T = system: Hs-578T
EKVX = system: EKVX
PC-3 = system: PC-3

Structure (SMILES)	GI50 (HL-60)	GI50 (UO-31)	GI50 (CAKI-1)	GI50 (HCC 2998)	GI50 (OVCAR-8)	GI50 (TK-10)	GI50 (UACC-62)	GI50 (COLO 205)	GI50 (SK-MEL-5)	GI50 (IGROV-1)	GI50 (SF-268)	GI50 (LOX IMVI)	GI50 (RXF 393)	GI50 (RPMI-8226)	GI50 (SNB-75)	GI50 (NCI-H226)	GI50 (Hs-578T)	GI50 (EKVX)	GI50 (PC-3)
Cc1nc2cc(Nc3ccccc3C(=O)O)ccc2s1	> 100 µM (inactive)	34 µM (inactive)	> 100 µM (inactive)	> 100 µM (inactive)	> 100 µM (inactive)	> 100 µM (inactive)	> 100 µM (inactive)	> 100 µM (inactive)	> 100 µM (inactive)	> 100 µM (inactive)	> 100 µM (inactive)	> 100 µM (inactive)	> 100 µM (inactive)	> 100 µM (inactive)	> 100 µM (inactive)				
O=C(Nc1nnc(-c2ccccc2)o1)C(SC(=S)N1CCOCC1)c1ccccc1 (configuration not stated)	12.3 µM (inactive)	13.6 µM (inactive)	30.2 µM (inactive)		31.8 µM (inactive)	51.6 µM (inactive)		35.6 µM (inactive)	15.7 µM (inactive)	35.7 µM (inactive)		16.3 µM (inactive)	41.9 µM (inactive)	22.6 µM (inactive)	47.9 µM (inactive)	34.4 µM (inactive)	86.3 µM (inactive)	15.3 µM (inactive)	27 µM (inactive)
CN(C)c1ccc(C(C#N)N2CCCN(C(C#N)c3ccc(N(C)C)cc3)C2c2ccc(N(C)C)cc2)cc1 (configuration not stated)	> 100 µM (inactive)	> 100 µM (inactive)	> 100 µM (inactive)		> 100 µM (inactive)	> 100 µM (inactive)	> 100 µM (inactive)	> 100 µM (inactive)	> 100 µM (inactive)	> 100 µM (inactive)	> 100 µM (inactive)	> 100 µM (inactive)	> 100 µM (inactive)	> 100 µM (inactive)	> 100 µM (inactive)	> 100 µM (inactive)	> 100 µM (inactive)	> 100 µM (inactive)	> 100 µM (inactive)
COC1=C(OC)C(=O)C(Cc2c(C)nc3sccn23)=C(C)C1=O		13.6 µM (inactive)	17.9 µM (inactive)	20.9 µM (inactive)	14.9 µM (inactive)	16.4 µM (inactive)	10.6 µM (inactive)	12.6 µM (inactive)	4.68 µM (inactive)	22.4 µM (inactive)	18.8 µM (inactive)	11.7 µM (inactive)	22.8 µM (inactive)	2.48 µM (inactive)			19.3 µM (inactive)	14.1 µM (inactive)	16.3 µM (inactive)
CN(C)CCNc1ncnc2nc(-c3ccccc3)c(-c3ccccc3)nc12	> 100 µM (inactive)	> 100 µM (inactive)	> 100 µM (inactive)		> 100 µM (inactive)	> 100 µM (inactive)	> 100 µM (inactive)	> 100 µM (inactive)	> 100 µM (inactive)	> 100 µM (inactive)	> 100 µM (inactive)	> 100 µM (inactive)	> 100 µM (inactive)		87.7 µM (inactive)	> 100 µM (inactive)	> 100 µM (inactive)	> 100 µM (inactive)	> 100 µM (inactive)
OCC(CCc1c[nH]c2ccccc12)c1c[nH]c2ccccc12 (configuration not stated)	8.95 µM (inactive)	12.6 µM (inactive)	26.1 µM (inactive)		20.7 µM (inactive)	19.6 µM (inactive)	14.1 µM (inactive)	16.9 µM (inactive)	16.8 µM (inactive)	12.7 µM (inactive)	17.3 µM (inactive)	14.3 µM (inactive)	15.3 µM (inactive)	27 µM (inactive)	19.7 µM (inactive)	18.1 µM (inactive)	20.8 µM (inactive)	14.7 µM (inactive)	17.2 µM (inactive)
COc1ccc(N[S+]([O-])CCCc2ccccc2)cc1 (configuration not stated)	67.3 µM (inactive)	38.7 µM (inactive)			> 100 µM (inactive)	> 100 µM (inactive)	44.9 µM (inactive)	> 100 µM (inactive)	44.8 µM (inactive)	72.6 µM (inactive)	> 100 µM (inactive)	> 100 µM (inactive)		70 µM (inactive)		> 100 µM (inactive)	> 100 µM (inactive)	> 100 µM (inactive)	
COc1ccc(N[S+]([O-])c2ccc(Cl)cc2)cc1 (configuration not stated)	38.5 µM (inactive)	14.6 µM (inactive)		30.7 µM (inactive)	73.3 µM (inactive)	> 100 µM (inactive)	8.43 µM (inactive)	> 100 µM (inactive)	28.4 µM (inactive)	10.5 µM (inactive)	4 µM (inactive)	31 µM (inactive)		39.4 µM (inactive)		19.5 µM (inactive)	23.1 µM (inactive)	55.2 µM (inactive)	
O=c1[nH]c(=O)n(C2CC(O)C(CO)O2)cc1OCCc1ccccc1 (configuration not stated)	> 100 µM (inactive)	> 100 µM (inactive)	> 100 µM (inactive)		> 100 µM (inactive)	> 100 µM (inactive)	> 100 µM (inactive)	> 100 µM (inactive)	> 100 µM (inactive)	> 100 µM (inactive)	> 100 µM (inactive)	> 100 µM (inactive)	> 100 µM (inactive)	> 100 µM (inactive)	> 100 µM (inactive)	> 100 µM (inactive)	> 100 µM (inactive)	> 100 µM (inactive)	> 100 µM (inactive)
O=c1/c(=C/c2ccc([N+](=O)[O-])o2)sc2n1[C@@H](c1ccc(Cl)cc1)C=C(c1cc(F)c(Cl)cc1Cl)N=2	12.3 µM (inactive)	14.7 µM (inactive)	28.7 µM (inactive)		4.16 µM (inactive)	16.1 µM (inactive)	14.8 µM (inactive)	3.94 µM (inactive)	13.9 µM (inactive)	15.8 µM (inactive)	13.8 µM (inactive)	16 µM (inactive)	13.2 µM (inactive)	5.16 µM (inactive)	29.2 µM (inactive)	15.8 µM (inactive)	56.5 µM (inactive)		11.5 µM (inactive)
O=C(Oc1ccccc1)N1c2ccccc2[C@@]23O[C@]24CCC[C@H]3C#C/C=C\C#C[C@H]14	0.506 µM (active)	13.7 µM (inactive)	13 µM (inactive)		11.9 µM (inactive)	19.9 µM (inactive)	7.48 µM (inactive)	14.8 µM (inactive)		12.4 µM (inactive)	13.6 µM (inactive)	12.9 µM (inactive)	10.1 µM (inactive)	2.82 µM (inactive)	8.85 µM (inactive)	17.4 µM (inactive)	16.6 µM (inactive)	14.9 µM (inactive)	11.6 µM (inactive)
O=C(O)CNS(=O)(=O)c1ccc(NC(=O)c2ccccc2[N+](=O)[O-])cc1	> 100 µM (inactive)	> 100 µM (inactive)	> 100 µM (inactive)		> 100 µM (inactive)	> 100 µM (inactive)	> 100 µM (inactive)	> 100 µM (inactive)	> 100 µM (inactive)	> 100 µM (inactive)	> 100 µM (inactive)	> 100 µM (inactive)	> 100 µM (inactive)	> 100 µM (inactive)	> 100 µM (inactive)			> 100 µM (inactive)	
N#C/C(C(=O)Nc1ccc(Cl)cc1)=C(/N)N1CCCCC1	10 µM (inactive)	22.3 µM (inactive)	> 100 µM (inactive)	> 100 µM (inactive)	41.2 µM (inactive)		42.5 µM (inactive)	> 100 µM (inactive)	> 100 µM (inactive)	66.5 µM (inactive)		83.4 µM (inactive)		> 100 µM (inactive)	24.7 µM (inactive)	92.3 µM (inactive)		45.1 µM (inactive)	> 100 µM (inactive)
CO/C(N)=C(C#N)/N=C/c1ccc2ccccc2c1	3.61 µM (inactive)	58.2 µM (inactive)	39.1 µM (inactive)		72.3 µM (inactive)	> 100 µM (inactive)	3.06 µM (inactive)	17.9 µM (inactive)	13 µM (inactive)	43.6 µM (inactive)	> 100 µM (inactive)	33.2 µM (inactive)	> 100 µM (inactive)	17.1 µM (inactive)	78.9 µM (inactive)	> 100 µM (inactive)	46.7 µM (inactive)	64.3 µM (inactive)	19.9 µM (inactive)
COC1CN(C)/C(=N\c2cccc3ccccc23)S1 (configuration not stated)	> 10 µM (inactive)		> 10 µM (inactive)	> 10 µM (inactive)	> 10 µM (inactive)	> 10 µM (inactive)	> 10 µM (inactive)	> 10 µM (inactive)	> 10 µM (inactive)	> 10 µM (inactive)	> 10 µM (inactive)	> 10 µM (inactive)		> 10 µM (inactive)	> 10 µM (inactive)		> 10 µM (inactive)		> 10 µM (inactive)
COc1cc(S(=O)(=O)Nc2ccc(-c3csc(N4C(=O)CSC4c4ccccc4O)n3)cc2)ccc1Cl (configuration not stated)	22.2 µM (inactive)	51.3 µM (inactive)	> 100 µM (inactive)	21.6 µM (inactive)	55.1 µM (inactive)		29.4 µM (inactive)	24.5 µM (inactive)	58.7 µM (inactive)	46.3 µM (inactive)	44.8 µM (inactive)	34.4 µM (inactive)		60.5 µM (inactive)	31.9 µM (inactive)	32.9 µM (inactive)		25.4 µM (inactive)	38.1 µM (inactive)
CC(C)Oc1c(C2(c3ccccc3)SCCCS2)c(=O)c1=O	> 100 µM (inactive)	> 100 µM (inactive)	> 100 µM (inactive)		> 100 µM (inactive)	> 100 µM (inactive)	> 100 µM (inactive)	> 100 µM (inactive)	> 100 µM (inactive)	> 100 µM (inactive)	> 100 µM (inactive)	> 100 µM (inactive)	> 100 µM (inactive)		> 100 µM (inactive)	> 100 µM (inactive)	84.7 µM (inactive)	> 100 µM (inactive)	> 100 µM (inactive)

From ChEMBL document CHEMBL1201862, “PubChem BioAssay data set” (2004)
